Our source for the viability and IC50 values is ChEMBL document CHEMBL6134838, “Discovery of c-Kit as a New Therapeutic Target in LPS-Induced Acute Lung Injury through Novel Phenylamide Derivative D9” (J Med Chem, 2025).

Tested on in the first data set: not listed separately
In words: Cytotoxicity against mouse J774.A1 cells assessed as survival rate at 10 uM measured for 48 hrs by MTT assay relative to control.
Conditions: not given
`O=C(NCCCN1CCOCC1)c1cc(Oc2ccc(NC(=O)c3cn(-c4ccc(Br)cc4F)c4ccccc4c3=O)cc2)ccn1`: the viability at 48 h, 10 µM came out at 92.2%. As to `O=C(NCCCN1CCOCC1)c1cc(Oc2ccc(NC(=O)c3cn(-c4ccccc4)c4ccccc4c3=O)cc2)ccn1`, the viability at 48 h, 10 µM came to 82.7%. Take `O=C(NCCc1cccs1)c1cc(Oc2ccc(NC(=O)c3cn(-c4ccc(Br)cc4)c4ccccc4c3=O)cc2)ccn1`: the viability at 48 h, 10 µM was 84.4%.

As for `O=C(NCCCN1CCOCC1)c1cc(Oc2ccc(NC(=O)c3cn(-c4ccc(F)c(Cl)c4)c4ccccc4c3=O)cc2F)ccn1`, the viability at 48 h, 10 µM was more than 100%. As to `O=C(NCCc1cccs1)c1cc(Oc2ccc(NC(=O)c3cn(-c4ccc(Br)cc4)c4ccccc4c3=O)cc2F)ccn1`, the viability at 48 h, 10 µM was determined as 84.3%.

Turning to `O=C(NCCc1cccs1)c1cc(Oc2ccc(NC(=O)c3cn(-c4ccccc4)c4ccccc4c3=O)cc2)ccn1`, the viability at 48 h, 10 µM turned out to be 72%. Turning to `O=C(NCCCN1CCOCC1)c1cc(Oc2ccc(NC(=O)c3cn(-c4ccc(Cl)cc4)c4ccccc4c3=O)cc2F)ccn1`, the viability at 48 h, 10 µM was 77.8%.

As for `COc1ccc(-n2cc(C(=O)Nc3ccc(Oc4ccnc(C(=O)NCCc5cccs5)c4)cc3)c(=O)c3ccccc32)cc1`, the viability at 48 h, 10 µM was 88.3%. Consider `O=C(NCCc1cccs1)c1cc(Oc2ccc(NC(=O)c3cn(-c4ccc(Br)cc4F)c4ccccc4c3=O)cc2F)ccn1`, for which the viability at 48 h, 10 µM came out at 97.1%.

In the case of `COc1ccc(-n2cc(C(=O)Nc3ccc(Oc4ccnc(C(=O)NCCCN5CCOCC5)c4)cc3)c(=O)c3ccccc32)cc1`, the viability at 48 h, 10 µM was found to be 87%. On to `O=C(NCCCN1CCOCC1)c1cc(Oc2ccc(NC(=O)c3cn(-c4ccc(Br)cc4)c4ccccc4c3=O)cc2)ccn1`, for which the viability at 48 h, 10 µM was more than 100%. For `O=C(NCCCN1CCOCC1)c1cc(Oc2ccc(NC(=O)c3cn(-c4ccc(Br)cc4)c4ccccc4c3=O)cc2F)ccn1`, the viability at 48 h, 10 µM worked out at 91.3%. Turning to `O=C(NCCc1cccs1)c1cc(Oc2ccc(NC(=O)c3cn(-c4ccc(Cl)cc4)c4ccccc4c3=O)cc2)ccn1`, the viability at 48 h, 10 µM came out at 86.2%. For `O=C(NCCc1cccs1)c1cc(Oc2ccc(NC(=O)c3cn(-c4ccccc4)c4ccccc4c3=O)cc2F)ccn1`, the viability at 48 h, 10 µM came out at 99.8%. On the same count and under the same terms, the figure for `O=C(NCCCN1CCOCC1)c1cc(Oc2ccc(NC(=O)c3cn(-c4ccccc4)c4ccccc4c3=O)cc2F)ccn1` is 83.2%; for `O=C(NCCc1cccs1)c1cc(Oc2ccc(NC(=O)c3cn(-c4ccc(Br)cc4F)c4ccccc4c3=O)cc2)ccn1` it is 92.8%. Consider `COc1ccc(-n2cc(C(=O)Nc3ccc(Oc4ccnc(C(=O)NCCc5cccs5)c4)c(F)c3)c(=O)c3ccccc32)cc1`, for which the viability at 48 h, 10 µM came out at 85.3%. Turning to `O=C(NCCc1cccs1)c1cc(Oc2ccc(NC(=O)c3cn(-c4ccc(F)c(Cl)c4)c4ccccc4c3=O)cc2)ccn1`, the viability at 48 h, 10 µM was more than 100%. Consider `O=C(NCCCN1CCOCC1)c1cc(Oc2ccc(NC(=O)c3cn(-c4ccc(F)c(Cl)c4)c4ccccc4c3=O)cc2)ccn1`, for which the viability at 48 h, 10 µM is more than 100%.

Turning to `O=C(NCCc1cccs1)c1cc(Oc2ccc(NC(=O)c3cn(-c4ccc(Cl)cc4)c4ccccc4c3=O)cc2F)ccn1`, the viability at 48 h, 10 µM is 7.46%.

`O=C(NCCCN1CCOCC1)c1cc(Oc2ccc(NC(=O)c3cn(-c4ccc(F)cc4)c4ccccc4c3=O)cc2F)ccn1`: the viability at 48 h, 10 µM was determined as 94.1%. For `O=C(NCCCN1CCOCC1)c1cc(Oc2ccc(NC(=O)c3cn(-c4ccc(Cl)cc4)c4ccccc4c3=O)cc2)ccn1`, the viability at 48 h, 10 µM is more than 100%.

Regarding `O=C(NCCc1cccs1)c1cc(Oc2ccc(NC(=O)c3cn(-c4ccc(F)cc4)c4ccccc4c3=O)cc2F)ccn1`, the viability at 48 h, 10 µM was more than 100%. Still for that read-out and setting: the figure for `COc1ccc(-n2cc(C(=O)Nc3ccc(Oc4ccnc(C(=O)NCCCN5CCOCC5)c4)c(F)c3)c(=O)c3ccccc32)cc1` is 22.9%.

As to `O=C(NCCCN1CCOCC1)c1cc(Oc2ccc(NC(=O)c3cn(-c4ccc(Br)cc4F)c4ccccc4c3=O)cc2F)ccn1`, the viability at 48 h, 10 µM came to 90.7%. As for `O=C(NCCc1cccs1)c1cc(Oc2ccc(NC(=O)c3cn(-c4ccc(F)c(Cl)c4)c4ccccc4c3=O)cc2F)ccn1`, the viability at 48 h, 10 µM was 77.7%. Take `O=C(NCCCN1CCOCC1)c1cc(Oc2ccc(NC(=O)c3cn(-c4ccc(F)cc4)c4ccccc4c3=O)cc2)ccn1`: the viability at 48 h, 10 µM is 87.1%. For `COc1cc(/C=C/C(=O)CC(=O)/C=C/c2ccc(O)c(OC)c2)ccc1O` [CURCUMIN], the viability at 48 h, 10 µM was found to be 94.9%.

Another data set relates to J774.A1. The experiment in a line: cells. The conditions noted are these: Mus musculus, J774.A1, 24 h.
Description: Antiinflammatory activity against mouse J774.A1 cells assessed as inhibition of LPS-stimulated IL-6 release measured for 24 hrs by ELISA method
In turn, `O=C(NCCCN1CCOCC1)c1cc(Oc2ccc(NC(=O)c3cn(-c4ccc(Br)cc4)c4ccccc4c3=O)cc2F)ccn1` registered an IC50 of 6.16 µM.
